In US8835653B2, “Chlorothiophene-isoxazoles as inhibitors of coagulation factors Xa and thrombin” (Sanofi, priority 2008, dated 2014):

Tests used:
[1] = target: T1, human coagulation factor Xa (Homo sapiens, UniProt P00742); experiment: Chromogenic assay for F Xa inhibition; assay type: biochemical; settings: chromogenic substrate S-2765 200 μM; Ki from IC50 by Cheng Prusoff formula, mean of duplicates
T1 construct: purchased Haemochrom Diag; HFXa
Method: (§1) The ability of the compounds of the formulae I or Ia to inhibit thrombin or factor Xa or other enzymes like factor VIIa, plasmin, or trypsin can be assessed by determining the concentration of the compound of the formulae I or Ia that inhibits enzyme activity by 50%, i.e. the 1050 value, which was related to the inhibition constant Ki. Purified enzymes were used in chromogenic assays. The concentration of inhibitor that causes a 50% decrease in the rate of substrate hydrolysis was determined by linear regression after plotting the relative rates of hydrolysis (compared to the uninhibited control) versus the log of the concentration of the compound of formulae I or Ia. For calculating the inhibition constant Ki, the 1050 value was corrected for competition with substrate using the formula Ki=IC50/{1+(substrate concentration/Km)} wherein Km is the Michaelis-Menten constant (Chen and Prusoff, Biochem. Pharmacol. 22 (1973) 3099-3108). Measurement of F Xa and Thrombin Inhibition:
(§2) The claimed substances were tested for F Xa and thrombin inhibition with a chromogenic assay. 8 μl DMSO solution of the compound, 72 μL assay buffer (50 mM TRIS, 150 mM NaCl, 0.1% BSA, pH 7.8) and 20 μL enzyme (human coagulation factor Xa: Haemochrom Diag. Cat. Nr. HFXa, final concentration […]; human thrombin Behring: LOT.-No. 881001) were mixed and incubated for 15 minutes at room temperature in a 96 well microtiter plate. The enzyme reaction was started with 100 μL substrate (F Xa: S-2765, Chromogenix/Haemochrom Cat. Nr. 41249; thrombin: S-2366, Chromogenix/Haemochrom Cat. Nr. 41222 both in a final concentration of 200 μM). The time course of the reaction was monitored at 405 nm in a microtiter plate reader (SpectraMax plus 384; Molecular Devices Inc.) for 15 minutes.
(§3) The Ki was calculated from the mean of duplicates from a dilution series of the compound by the reader according to the Cheng Prusoff formula Ki=IC50/(1+(S/Km).
(§4) The results (inhibition constants Ki Thrombin and FXa in mikro M [μM]) for inhibition of thrombin and factor Xa are shown in Table 1.

human thrombin = target: T2, human thrombin (Homo sapiens, UniProt P00734); experiment: Chromogenic assay for thrombin inhibition; assay type: biochemical; settings: chromogenic substrate S-2366 200 μM; Ki from IC50 by Cheng Prusoff formula, mean of duplicates
T2 construct: conversion of prothrombin to thrombin, the final enzyme in the coagulation cascade; purchased Behring LOT.-No. 881001 (a lot number; no catalogue number given)
Method: as §1, §2, §3, §4

T1 sequence (P00742 235-488 limits assumed): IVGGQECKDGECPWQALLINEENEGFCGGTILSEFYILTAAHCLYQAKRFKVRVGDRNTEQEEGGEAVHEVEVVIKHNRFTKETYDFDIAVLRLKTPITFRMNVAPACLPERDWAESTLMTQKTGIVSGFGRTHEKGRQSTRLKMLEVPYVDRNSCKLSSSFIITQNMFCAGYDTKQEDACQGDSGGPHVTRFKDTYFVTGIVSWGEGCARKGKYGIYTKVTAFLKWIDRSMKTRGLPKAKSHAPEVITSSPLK
T1 sequence (P00742 41-179 limits assumed): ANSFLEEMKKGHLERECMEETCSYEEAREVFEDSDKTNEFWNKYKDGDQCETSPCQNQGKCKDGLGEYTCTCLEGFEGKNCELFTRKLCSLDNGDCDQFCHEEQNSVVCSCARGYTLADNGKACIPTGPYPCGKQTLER

Compound: CCc1c(N2CCOCC2=O)cccc1S(=O)(=O)N[C@@H](Cc1cc(-c2ccc(Cl)s2)on1)C(=O)N1CCCCCC1 [Example 1, N-{(S)-2-Azepan-1-yl-1-[5-(5-chloro-thiophen-2-yl)-isoxazol-3-ylmethyl]-2-oxo-ethyl}-2-ethyl-3-(3-oxo-morpholin-4-yl)-benzenesulfonamide]
- Ki [1]: 13 nM
- Ki (human thrombin): 0.35 nM

Compound: O=C([C@H](Cc1cc(-c2ccc(Cl)s2)on1)NS(=O)(=O)c1cccc(N2CCOCC2=O)c1Cl)N1CCCCCC1 [Example 2, N-{(S)-2-Azepan-1-yl-1-[5-(5-chloro-thiophen-2-yl)-isoxazol-3-ylmethyl]-2-oxo-ethyl}-2-chloro-3-(3-oxo-morpholin-4-yl)-benzenesulfonamide]
- Ki [1]: 83 nM
- Ki (human thrombin): 7 nM

Compound: COc1c(N2CCCCC2=O)cc(F)cc1S(=O)(=O)N[C@@H](Cc1cc(-c2ccc(Cl)s2)on1)C(=O)NCC1CC1 [Example 3, (S)-3-[5-(5-Chloro-thiophen-2-yl)-isoxazol-3-yl]-N-cyclopropylmethyl-2-[5-fluoro-2-methoxy-3-(2-oxo-piperidin-1-yl)-benzenesulfonylamino]-propionamide]
- Ki [1]: 904 nM
- Ki (human thrombin): 268 nM

Compound: COc1c(N2CCCCC2=O)cc(F)cc1S(=O)(=O)N[C@@H](Cc1cc(-c2ccc(Cl)s2)on1)C(=O)N1CCN(C2CC2)CC1 [Example 4, N—[(S)-1-[5-(5-Chloro-thiophen-2-yl)-isoxazol-3-ylmethyl]-2-(4-cyclopropyl-piperazin-1-yl)-2-oxo-ethyl]-5-fluoro-2-methoxy-3-(2-oxo-piperidin-1-yl)-benzenesulfonamide trifluoro acetate]
- Ki [1]: 6 nM
- Ki (human thrombin): 29 nM

Compound: O=C([C@H](Cc1cc(-c2ccc(Cl)s2)on1)NS(=O)(=O)c1cccc(N2CCCCC2=O)c1OC(F)F)N1CCN(C2CC2)CC1 [Example 5, N—[(S)-1-[5-(5-Chloro-thiophen-2-yl)-isoxazol-3-ylmethyl]-2-(4-cyclopropyl-piperazin-1-yl)-2-oxo-ethyl]-2-difluoromethoxy-3-(2-oxo-piperidin-1-yl)-benzenesulfonamide trifluoro acetate]
- Ki [1]: 33 nM
- Ki (human thrombin): 94 nM

Compound: Cc1c(N2CCCC2=O)cccc1S(=O)(=O)N[C@@H](Cc1cc(-c2ccc(Cl)s2)on1)C(=O)N1CCN(CC(F)(F)F)CC1 [Example 6, N-{(S)-1-[5-(5-Chloro-thiophen-2-yl)-isoxazol-3-ylmethyl]-2-oxo-2-[4-(2,2,2-trifluoro-ethyl)-piperazin-1-yl]-ethyl}-2-methyl-3-(2-oxo-pyrrolidin-1-yl)-benzenesulfonamide trifluoro acetate]
- Ki [1]: 0.72 nM
- Ki (human thrombin): 14 nM

Compound: Cc1c(N2CCCC2=O)cccc1S(=O)(=O)N[C@@H](Cc1cc(-c2ccc(Cl)s2)on1)C(=O)N1CCNC(C(F)(F)F)C1 (stereo partly drawn) [Example 7, N—[(S)-1-[5-(5-Chloro-thiophen-2-yl)-isoxazol-3-ylmethyl]-2-oxo-2-(3-trifluoromethyl-piperazin-1-yl)-ethyl]-2-methyl-3-(2-oxo-pyrrolidin-1-yl)-benzenesulfonamide trifluoro acetate]
- Ki [1]: 0.44 nM
- Ki (human thrombin): 0.79 nM
